In the supplement of paper PMC10307832:

How the values were obtained:
Experiment in all cases: relative viability (nuclei count vs DMSO), 5 days (fraction); higher = more cells survive
Pemetrexed + Lapatinib = compound: Nc1nc2[nH]cc(CCc3ccc(C(=O)N[C@@H](CCC(=O)O)C(=O)O)cc3)c2c(=O)[nH]1 [Pemetrexed] + CS(=O)(=O)CCNCc1ccc(-c2ccc3ncnc(Nc4ccc(OCc5cccc(F)c5)c(Cl)c4)c3c2)o1 [Lapatinib] (partner 2 µM)
Method in brief: (§1)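 The day after seeding in 1536-well plates, lung cancer cell lines were treated by pin tool with a single drug, or with a fixed anchor-drug dose together with five library-drug doses (not always all listed) in √10 steps. After 5 days, a combined fix-and-stain solution (final 0.05% Triton X-100, 1% formaldehyde, 1 ug/ml Hoechst) was added. Nuclei counted on 4× images gave relative viability as treated counts over vehicle counts, reported as the median of duplicate plates.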

Pemetrexed + Vorinostat = compound: Nc1nc2[nH]cc(CCc3ccc(C(=O)N[C@@H](CCC(=O)O)C(=O)O)cc3)c2c(=O)[nH]1 [Pemetrexed] + O=C(CCCCCCC(=O)Nc1ccccc1)NO [Vorinostat] (partner 1 µM)
Method in brief: as §1

Pemetrexed + Pictilisib = compound: Nc1nc2[nH]cc(CCc3ccc(C(=O)N[C@@H](CCC(=O)O)C(=O)O)cc3)c2c(=O)[nH]1 [Pemetrexed] + CS(=O)(=O)N1CCN(Cc2cc3nc(-c4cccc5[nH]ncc45)nc(N4CCOCC4)c3s2)CC1 [Pictilisib] (partner 1 µM)
Method in brief: as §1

Idelalisib + OSI-027 = compound: CC[C@H](Nc1ncnc2[nH]cnc12)c1nc2cccc(F)c2c(=O)n1-c1ccccc1 [Idelalisib] + COc1cccc2cc(-c3nc([C@H]4CC[C@H](C(=O)O)CC4)n4ncnc(N)c34)[nH]c12 [OSI-027] (partner 0.5 µM)
Method in brief: as §1

Cell Line | relative viability (Pemetrexed + Lapatinib; first compound 0.002 µM) | relative viability (Pemetrexed + Lapatinib; first compound 0.006325 µM) | relative viability (Pemetrexed + Lapatinib; first compound 0.02 µM) | relative viability (Pemetrexed + Lapatinib; first compound 0.06325 µM) | relative viability (Pemetrexed + Lapatinib; first compound 0.2 µM) | relative viability (Pemetrexed + Vorinostat; first compound 0.002 µM) | relative viability (Pemetrexed + Vorinostat; first compound 0.006325 µM) | relative viability (Pemetrexed + Vorinostat; first compound 0.02 µM) | relative viability (Pemetrexed + Vorinostat; first compound 0.06325 µM) | relative viability (Pemetrexed + Vorinostat; first compound 0.2 µM) | relative viability (Pemetrexed + Pictilisib; first compound 0.002 µM) | relative viability (Pemetrexed + Pictilisib; first compound 0.006325 µM) | relative viability (Pemetrexed + Pictilisib; first compound 0.02 µM) | relative viability (Pemetrexed + Pictilisib; first compound 0.06325 µM) | relative viability (Pemetrexed + Pictilisib; first compound 0.2 µM) | relative viability (Idelalisib + OSI-027; first compound 0.04 µM) | relative viability (Idelalisib + OSI-027; first compound 0.1265 µM) | relative viability (Idelalisib + OSI-027; first compound 0.4 µM) | relative viability (Idelalisib + OSI-027; first compound 1.265 µM) | relative viability (Idelalisib + OSI-027; first compound 4 µM)
201T | 0.977 | 1.04 | 1.1 | 1.07 | 1 | 0.867 | 0.971 | 1.03 | 1.03 | 0.848 | 0.625 | 0.698 | 0.715 | 0.632 | 0.5 | 0.812 | 0.736 | 0.548 | 0.67 | 0.679
A549 | 0.841 | 0.947 | 1.13 | 0.987 | 0.973 |  |  |  |  |  | 0.42 | 0.519 | 0.602 | 0.483 | 0.489 |  |  |  |  | 
A-427 | 0.974 | 1.06 | 1.09 | 1.14 | 0.819 | 0.855 | 0.865 | 0.867 | 0.876 | 0.708 | 0.646 | 0.759 | 0.804 | 0.746 | 0.642 | 0.443 | 0.488 | 0.332 | 0.503 | 0.469
ABC-1 | 1.35 | 1.16 | 1.25 | 1.05 | 1.16 | 1.07 | 1.68 | 1.18 | 1.33 | 1.1 | 0.947 | 0.662 | 0.954 | 0.826 | 0.706 | 0.491 | 0.495 | 0.43 | 0.577 | 0.409
BEN | 0.811 | 0.594 | 0.817 | 0.663 | 0.624 | 0.6 | 0.578 | 0.587 | 0.573 | 0.555 | 0.53 | 0.564 | 0.591 | 0.539 | 0.525 | 0.263 | 0.286 | 0.257 | 0.294 | 0.291
CAL-12T | 0.549 | 0.678 | 0.615 | 0.774 | 0.59 | 0.634 | 0.683 | 0.852 | 0.704 | 0.821 | 0.426 | 0.484 | 0.451 | 0.416 | 0.389 | 0.643 | 0.753 | 0.537 | 0.569 | 0.537
COR-L23 | 0.853 | 0.815 | 1.05 | 0.365 | 0.192 | 0.474 | 0.398 | 0.424 | 0.186 | 0.136 | 0.58 | 0.688 | 0.825 | 0.24 | 0.147 | 0.78 | 0.815 | 0.722 | 0.809 | 0.74
COR-L 105 | 0.404 | 0.389 | 0.375 | 0.406 | 0.315 | 0.954 | 0.784 | 0.849 | 0.857 | 0.688 | 0.406 | 0.463 | 0.423 | 0.386 | 0.416 | 0.739 | 0.629 | 0.505 | 0.725 | 0.579
Calu-6 | 1.09 | 1.02 | 1.18 | 0.999 | 0.84 |  |  |  |  |  | 0.876 | 0.911 | 0.978 | 0.903 | 0.785 |  |  |  |  | 
ChaGo-K-1 |  |  |  |  |  | 0.721 | 0.735 | 0.751 | 0.293 | 0.233 | 0.609 | 0.793 | 0.597 | 0.224 | 0.28 | 0.618 | 0.55 | 0.456 | 0.576 | 0.513
EBC-1 | 0.22 | 0.193 | 0.205 | 0.214 | 0.192 |  |  |  |  |  | 0.341 | 0.346 | 0.395 | 0.337 | 0.339 |  |  |  |  | 
EKVX | 0.17 | 0.191 | 0.194 | 0.185 | 0.182 | 0.683 | 0.654 | 0.724 | 0.793 | 0.557 | 0.408 | 0.441 | 0.418 | 0.432 | 0.269 | 0.705 | 0.709 | 0.527 | 0.557 | 0.586
EMC-BAC-2 | 0.792 | 0.777 | 0.961 | 0.903 | 0.888 | 0.397 | 0.734 | 0.539 | 0.402 | 0.256 | 0.534 | 0.465 | 0.564 | 0.579 | 0.421 | 0.388 | 0.411 | 0.308 | 0.363 | 0.352
EPLC-272H | 0.806 | 1.04 | 1.16 | 0.972 | 1.04 | 0.519 | 0.398 | 0.544 | 0.308 | 0.288 | 0.375 | 0.348 | 0.409 | 0.326 | 0.325 | 0.304 | 0.296 | 0.271 | 0.294 | 0.274
H3255 |  | 0.15 | 0.278 | 0.245 | 0.296 | 0.66 | 0.767 | 0.753 | 0.817 | 0.596 | 0.385 | 0.43 | 0.504 | 0.42 | 0.431 | 0.721 | 0.566 | 0.558 | 0.517 | 0.534
HARA | 0.681 | 0.747 | 1.01 | 0.674 | 0.365 | 0.517 | 0.611 | 0.512 | 0.595 | 0.231 | 0.465 | 0.374 | 0.436 | 0.235 | 0.204 | 0.618 | 0.466 | 0.296 | 0.374 | 0.441
HCC-15 | 0.751 | 0.763 | 1 | 0.655 | 0.444 | 0.821 | 0.76 | 0.878 | 0.69 | 0.345 | 0.629 | 0.777 | 0.766 | 0.544 | 0.238 | 0.702 | 0.754 | 0.509 | 0.869 | 0.668
HCC-44 | 0.928 | 1 | 1.03 | 1.02 | 0.874 | 0.972 | 1.11 | 1.14 | 1.11 | 1.13 | 1.52 | 0.61 | 0.654 | 0.537 | 0.395 | 0.474 | 0.54 | 0.437 | 0.604 | 0.5
